Values of other authors, collected in paper PMC13029847, “Decoding the Liver–Blood Partitioning of Neonicotinoid Insecticides: Evidence from Paired Human Liver and Blood Biomonitoring” (Toxics, 2026).
Values after ≈ are worked out from the molar mass of the structure shown.

Details: ref PubChem Open Chemistry Database

For CCN(Cc1ccc(Cl)nc1)/C(=C/[N+](=O)[O-])NC [NIT, nitenpyram], the Solubility is given as 840 mg/mL (≈ 3100 mM).
For CN1COCN(Cc2cnc(Cl)s2)/C1=N\[N+](=O)[O-] [THIA, thiamethoxam], the Solubility is listed as 4.1 mg/mL (≈ 14.1 mM).
